Assays:
Assay type in all cases: in vitro ADME
Conditions in all cases: petasins 20 μM, 60 min
CYP2D2 (rats) = molecular target: T1, CYP2D2 (rats) (Rattus norvegicus, UniProt P10634); assay: Metabolism by isolated rat CYP2D2
T1 construct: purchased BD Gentest (Switzerland); host or cells: baculovirus expression system
T1 sequence (P10634 1-500): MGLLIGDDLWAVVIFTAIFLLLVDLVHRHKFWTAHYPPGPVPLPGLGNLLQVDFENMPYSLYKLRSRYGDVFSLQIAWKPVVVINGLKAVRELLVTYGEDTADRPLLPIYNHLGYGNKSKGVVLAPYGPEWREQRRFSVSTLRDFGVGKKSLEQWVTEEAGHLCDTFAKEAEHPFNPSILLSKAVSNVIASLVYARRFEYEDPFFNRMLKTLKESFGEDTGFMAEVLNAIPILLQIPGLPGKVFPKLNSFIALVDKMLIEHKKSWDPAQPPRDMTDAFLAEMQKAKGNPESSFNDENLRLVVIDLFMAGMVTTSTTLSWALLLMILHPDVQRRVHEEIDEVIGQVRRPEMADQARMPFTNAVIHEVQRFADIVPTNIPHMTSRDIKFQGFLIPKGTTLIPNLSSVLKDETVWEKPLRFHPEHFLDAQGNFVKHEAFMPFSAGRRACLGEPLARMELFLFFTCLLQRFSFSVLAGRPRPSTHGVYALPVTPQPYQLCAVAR
From the text: (§1) The metabolism of petasin, isopetasin, and neopetasin was investigated using three different S9 fractions originating from three different species (isolated from rat, dog, and human liver homogenates containing cytochrome P450 isoforms) and isolated cytochromes of two different species (human and rat; rat analogues of the respective human cytochromes were used). For the expression of the different cytochromes, a baculovirus expression system was used according to supplier's manual. The S9 fractions or respectively single P450 cytochromes were used to mimic the liver metabolism by in vitro incubation.
(§2) The assay was carried out in triplicate in 1.5 ml glass vials with a final concentration of 20 μM of petasin, isopetasin, and neopetasin. The incubation was performed in a 37°C warm water bath. S9 fractions were thawed slowly on ice. Four different approaches were pursued by testing: (a) petasin, neopetasin, and isopetasin before (0 min) and after 60 min incubations with S9 fraction; (b) petasin, neopetasin, and isopetasin without S9 fraction after 60 min incubation; (c) vehicle as negative controls; and (d) cofactors of S9 fraction after 60‐min incubation.
(§3) A mixture of NADPH regeneration systems A (20‐fold) and B (100‐fold), phosphate buffer, and H2O was added, preincubated at 37°C, and shaken gently for 5 min. Afterwards, the recommended amount between 10 and 40 pmol/ml of enzyme or enzyme mixture was added according to manufacturer's instruction and incubated for further 60 min at 37°C and gently shaken. Afterwards, the reactions were stopped by addition of acetonitrile (400 μl). For the control sample, acetonitrile was added at 0 min incubation. The samples were centrifuged for 3 min at 10,000 × g. The supernatant was transferred to high‐performance liquid chromatography vials and analyzed by ultra‐performance liquid chromatography mass spectrometry (UPLC/MS). The UPLC analysis was performed with an UPLC Acquity H Class from Waters (Waters Corporation, Switzerland) including a quaternary high‐pressure gradient pump, an automatic sample injector, and a column thermostat. […]

CYP2C6 (rat) = molecular target: T2, CYP2C6 (rat) (Rattus norvegicus, UniProt P05178); assay: Metabolism by isolated rat CYP2C6
T2 construct: purchased BD Gentest (Switzerland); host or cells: baculovirus expression system
T2 sequence (P05178 1-490): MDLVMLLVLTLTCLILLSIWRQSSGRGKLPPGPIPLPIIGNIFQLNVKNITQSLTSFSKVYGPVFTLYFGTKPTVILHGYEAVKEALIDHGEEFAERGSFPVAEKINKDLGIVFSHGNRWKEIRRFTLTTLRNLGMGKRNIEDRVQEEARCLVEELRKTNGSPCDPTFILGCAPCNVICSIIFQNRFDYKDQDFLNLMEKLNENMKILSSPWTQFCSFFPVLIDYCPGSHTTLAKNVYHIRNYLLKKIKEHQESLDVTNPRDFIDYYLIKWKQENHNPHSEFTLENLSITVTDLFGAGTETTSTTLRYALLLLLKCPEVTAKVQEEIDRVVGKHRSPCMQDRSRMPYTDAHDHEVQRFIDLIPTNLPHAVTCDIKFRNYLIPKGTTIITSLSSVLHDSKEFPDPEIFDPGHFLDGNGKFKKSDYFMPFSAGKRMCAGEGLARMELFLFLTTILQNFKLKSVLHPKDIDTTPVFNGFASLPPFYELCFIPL
From the text: as §1, §2, §3

CYP1A2 (human) = molecular target: T3, CYP1A2 (human) (Homo sapiens, UniProt P05177); assay: Metabolism by isolated human CYP1A2
T3 construct: purchased BD Gentest (Switzerland); host or cells: baculovirus expression system
T3 sequence (P05177 1-516): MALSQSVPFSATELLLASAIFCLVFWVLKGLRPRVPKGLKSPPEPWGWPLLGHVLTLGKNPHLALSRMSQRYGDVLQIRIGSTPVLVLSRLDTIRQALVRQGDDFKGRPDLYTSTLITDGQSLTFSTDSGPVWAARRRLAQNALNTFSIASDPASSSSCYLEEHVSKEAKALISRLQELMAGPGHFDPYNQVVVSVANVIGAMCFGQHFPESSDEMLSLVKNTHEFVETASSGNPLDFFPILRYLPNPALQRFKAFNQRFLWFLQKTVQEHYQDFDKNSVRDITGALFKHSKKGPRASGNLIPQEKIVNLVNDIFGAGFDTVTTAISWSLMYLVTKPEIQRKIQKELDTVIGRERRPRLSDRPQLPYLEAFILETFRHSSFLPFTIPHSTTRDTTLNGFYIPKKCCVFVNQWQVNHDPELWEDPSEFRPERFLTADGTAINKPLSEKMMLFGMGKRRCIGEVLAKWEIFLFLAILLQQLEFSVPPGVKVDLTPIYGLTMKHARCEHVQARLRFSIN
From the text: as §1, §2, §3

extent of metabolism by CYP2D2 (rat) (CYP2D2 (rats)) [%] | extent of metabolism by CYP2C6 (rat) (CYP2C6 (rat)) [%] | extent of metabolism by CYP1A2 (human) (CYP1A2 (human)) [%] | Structure (SMILES)
37 | 94 | 4 | C=C(C)[C@@H]1C[C@@]2(C)C(=CC1=O)CC[C@@H](OC(=O)/C(C)=C\C)[C@@H]2C [petasin]
7 | 75 | 21 | C/C=C(/C)C(=O)O[C@@H]1CCC2=CC(=O)C(=C(C)C)C[C@]2(C)[C@H]1C [isopetasin]
36 | 72 | < 1 | C=C(C)[C@H]1C[C@@]2(C)C(=CC1=O)CC[C@@H](OC(=O)/C(C)=C\C)[C@@H]2C [neopetasin]
